In assay [1] the target is T1, OX1 (Homo sapiens, UniProt O43613).
T1 sequence (O43613 1-425): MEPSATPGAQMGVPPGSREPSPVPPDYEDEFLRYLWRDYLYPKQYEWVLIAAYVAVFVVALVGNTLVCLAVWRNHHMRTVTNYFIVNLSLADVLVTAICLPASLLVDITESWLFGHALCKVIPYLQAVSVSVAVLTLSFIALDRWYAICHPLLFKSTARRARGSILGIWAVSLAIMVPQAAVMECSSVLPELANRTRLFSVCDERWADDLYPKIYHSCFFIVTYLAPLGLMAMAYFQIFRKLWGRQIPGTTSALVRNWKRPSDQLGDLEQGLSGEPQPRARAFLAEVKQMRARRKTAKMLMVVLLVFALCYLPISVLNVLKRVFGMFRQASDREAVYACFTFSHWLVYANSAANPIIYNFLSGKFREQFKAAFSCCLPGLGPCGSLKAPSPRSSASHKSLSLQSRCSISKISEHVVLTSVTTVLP
Nature of the assay: Antagonism PLAP reporter assay, HEK-293 cells expressing human OX1. Type of assay: cell-based. The arrangement: expressed in transfected cells; host or cells: HEK-293 cell line, expression vector pBabeCLIH. The note with it: HEK-293, 1 nM human OX-A; IC50 converted to Ki by Cheng-Prusoff equation. Here is the method: (§1) The antagonistic function of the compound of the present invention to prevent the activation of OX2 and OX1 by orexin-A (OX-A), which is a natural peptide agonist, was measured using a cell-based reporter assay. A HEK-293 cell line expressing genetically recombinant human OX2 (accession No. NM_001526.3) or a HEK-293 cell line expressing genetically recombinant human OX1 (accession No. NM_001525.2), which had pBabeCLIH as expression vector, was used. The cells were plated at a density of 10,000 cells/well onto a non-coated 96-well plate in Dulbecco's modified Eagle medium (Sigma Cat No. D6046: 10% v/v heat-inactivated fetal bovine serum was contained). The cells were cultured at 37° C. overnight, so that they could adhere to the plate. On the following day, cells were incubated with a compound of the present invention dissolved in Dulbecco's modified Eagle medium (Sigma Cat No. A8806: 0.1% w/v bovine serum albumin was contained), and added to the cell plate to reach a final concentration of 0.1% dimethyl sulfoxide.
(§2) The thus obtained mixture was incubated at room temperature for 1 hour. Thereafter, human OX-A and forskolin were dissolved in the same medium as described above, which contained fetal bovine serum albumin, and the medium was then added to the cells, resulting in a final concentration of 300 nM forskolin. Subsequently, the cells were cultured at 37° C. for approximately 18 to 24 hours. During the culture, as a result of activation of the orexin receptor and subsequent dose-dependent increase in intracellular calcium concentration, a reporter enzyme, placental alkaline phosphatase (PLAP), was expressed under the control of a CRE x4+VIP promoter in a pBabeCLcre4vPdNN vector and secreted into the culture medium supernatant. On the following day, reporter enzyme activity was detected by mixing 5 ul of the culture medium supernatant with 20 ul of detection buffer (containing 1.34 g/L sodium bicarbonate, 1.27 g/L sodium carbonate and 0.2 g/L magnesium sulfate heptahydrate in water) and 25 ul of Lumi-Phos530 reagent (Wako Pure Chemical Industries Ltd.), followed by incubating the obtained mixture light-protected at room temperature for 2 hours, before performing luminescence measurement (ARVO Reader, PerkinElmer). The Kd value of human OX-A with respect to each receptor was measured by titration from 0 to 300 nM. Then, the IC50 value of the compound of the present invention with respect to the activity of 1 nM human OX-A was converted into a Ki value (nM) using the Cheng-Prusoff equation.
For orientation: In a reporter assay the amount or activity of a reporter protein is the signal.

Assay [2] concerns the target T1, OX1. Kind of assay: Orexin-receptor binding ability, [125I]-OX-A, CHO cell membranes expressing OX1. Set-up: expressed in transfected cells; host or cells: CHO cells (membrane preparation). Here is the method:
(§3) The assay was carried out using a 96-well Wheat Germ Agglutinin Flash Plate (PerkinElmer). The volume in a single assay well was 100 ul, and the composition of the reaction solution was as follows:
(§4) 25 mM HEPES (pH 7.5), 1 mM CaCl2, 4.5 mM MgCl2, 0.5% BSA (bovine serum albumin), 0.1% sodium azide, 0.05% Tween-20, and 0.2% DMSO.
Cell membranes were prepared from recombinant CHO cells that expressed OX2 or OX1. The cell membranes were used in an amount of 5 μg protein/assay. […] Finally, the radioactivity of each well was measured using a scintillation counter (TopCount, PerkinElmer). The obtained results are shown in terms of IC50 values (nM) in the following table.

The target of assay [3] is T2, OX2 (Homo sapiens, UniProt O43614).
T2 sequence (O43614 1-444): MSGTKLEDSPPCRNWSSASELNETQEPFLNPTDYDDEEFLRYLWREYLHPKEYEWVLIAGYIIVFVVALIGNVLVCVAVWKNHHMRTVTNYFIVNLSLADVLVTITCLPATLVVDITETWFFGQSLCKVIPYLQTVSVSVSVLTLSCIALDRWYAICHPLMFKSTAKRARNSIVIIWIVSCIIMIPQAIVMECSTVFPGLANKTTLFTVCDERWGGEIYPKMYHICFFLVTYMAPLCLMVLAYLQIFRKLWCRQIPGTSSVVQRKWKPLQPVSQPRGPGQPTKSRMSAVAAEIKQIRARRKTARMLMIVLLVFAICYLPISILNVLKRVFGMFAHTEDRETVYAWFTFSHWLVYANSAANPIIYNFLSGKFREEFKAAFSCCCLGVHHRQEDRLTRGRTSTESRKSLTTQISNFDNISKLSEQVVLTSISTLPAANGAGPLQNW
Nature of the assay: Orexin-receptor binding ability, [125I]-OX-A, CHO cell membranes expressing OX2. Set-up: expressed in transfected cells; host or cells: CHO cells (membrane preparation). Here is the method: as §3, §4
Cell membranes were prepared from recombinant CHO cells that expressed OX2 or OX1. The cell membranes were used in an amount of 5 μg protein/assay. Test compound in various concentrations, and 0.2 nM [^125I]-OX-A as tracer were added to the cell membranes, and then allowed to react at room temperature for 30 minutes. After completion of the reaction, the reaction solution as a whole was discarded, and the wells were then washed once with 200 ul of wash buffer (25 mM HEPES (pH 7.5), 1 mM CaCl2, 5 mM MgCl2, 0.5% BSA, 0.1% sodium azide, 0.05% Tween-20, and 525 mM sodium chloride). Finally, the radioactivity of each well was measured using a scintillation counter (TopCount, PerkinElmer). The obtained results are shown in terms of IC50 values (nM) in the following table.

The target of assay [4] is T2, OX2. Nature of the assay: Antagonism PLAP reporter assay, HEK-293 cells expressing human OX2. Type of assay: cell-based. Set-up: expressed in transfected cells; host or cells: HEK-293 cell line, expression vector pBabeCLIH. Particulars: HEK-293, 1 nM human OX-A; IC50 converted to Ki by Cheng-Prusoff equation. Here is the method:
as §1, §2

[5] abbreviates: membranes of recombinant CHO cells, 0.2 nM [125I]-OX-A tracer, read-out: OX1 (IC50).
[6] abbreviates: membranes of recombinant CHO cells, 0.2 nM [125I]-OX-A tracer, read-out: OX2 (IC50).

SMILES strings stand for the structures. Like-named read-outs stand apart in the source and are kept apart here.

As to `COc1ccc(OCC2(c3ccccc3)CC2C(=O)Nc2cc(C)ccn2)cc1OC` (centres unmarked) [Example 36, N-(4-methylpyridin-2-yl)-2-[(3,4-dimethoxyphenyl)oxymethyl]-2-phenylcyclopropanecarboxamide], the values for the Ki in assay [1] and in assay [4] were 699 nM and 43 nM, respectively. The IC50 in assay [2] (setting [5]) turned out to be 283 nM; in assay [3] (setting [6]) it was 22 nM.
Taken in the same sequence, the figures for `Cc1noc2cc(OCC3(c4ccccc4)CC3C(=O)Nc3ccc(C#N)cn3)ccc12` (centres unmarked) [Example 61] were 275 nM, 32.9 nM, 520 nM and 70 nM.
`COc1ccc(OCC2(c3ccccc3)CC2C(=O)Nc2ccc(F)nc2)cc1OC` (centres unmarked) [Example 26]: the inhibition constant Ki in assay [1] was 70 nM; in assay [4], 12.8 nM. Moreover, the half-maximal inhibitory concentration (IC50) in assay [2] was determined as 27 nM; in assay [3], 43 nM.
On to `COc1ccc(OCC2(c3ccccc3)CC2C(=O)Nc2ccccc2)cc1OC` (centres unmarked) [Example 1], for which the figures for the Ki in assay [1] and in assay [4] were 395 nM and 54 nM, respectively. The IC50 in assay [2] (setting [5]) and in assay [3] (setting [6]) was 7 nM throughout.
On to `COc1ccc(OCC2(c3ccccc3)CC2C(=O)Nc2ccc(Cl)cn2)cc1OC` (centres unmarked) [Example 6, N-(5-chloropyridin-2-yl)-2-[(3,4-dimethoxyphenyl)oxymethyl]-2-phenylcyclopropanecarboxamide], for which the results for the Ki in assay [1] and in assay [4] were 9.8 nM and 0.8 nM, respectively. Further, the values for the IC50 in assay [2] and in assay [3] were 19 nM and 3 nM, respectively.
For `COc1ccc(CCC2(c3ccccc3)CC2C(=O)Nc2ccccn2)cc1OC` (centres unmarked) [Example 99, N-(pyridin-2-yl)-2-[2-(3,4-dimethoxyphenyl)ethyl]-2-phenylcyclopropanecarboxamide], the inhibition constant (Ki) in assay [1] was greater than 816 nM; in assay [4] it was 154 nM. The IC50 in assay [2] (setting [5]) amounted to 632 nM; in assay [3] (setting [6]), 43 nM.
Turning to `COc1cc(F)c(OCC2(c3ccccc3)CC2C(=O)Nc2ccccn2)cc1OC` (centres unmarked) [Example 78], the inhibition constant (Ki) in assay [1] stood at 342 nM; in assay [4], 19.2 nM. Also, the IC50 in assay [2] (setting [5]) came out at 212 nM; in assay [3] it was 20 nM.
As for `CCc1nc(Cl)cn1CCC1(c2ccccc2)CC1C(=O)Nc1ccc(C#N)cn1` (centres unmarked) [Example 114], the inhibition constant (Ki) in assay [1] was greater than 467 nM; in assay [4], 210 nM. For the same compound, the 50% inhibitory concentration (IC50) in assay [2] (setting [5]) amounted to 868 nM; in assay [3] (setting [6]) it was 49 nM.
Taken in the same sequence, the figures for `CCc1nc(Cl)cn1CCC1(c2ccccc2)CC1C(=O)Nc1ccc(F)cn1` (centres unmarked) [Example 113] were greater than 467 nM, 62.7 nM, 944 nM and 49 nM.
Taken in the same sequence, the figures for `COc1ccc(OCC2(c3ccccc3)CC2C(=O)Nc2ccc(F)cn2)cc1OC` (centres unmarked) [Example 10, N-(5-fluoropyridin-2-yl)-2-[(3,4-dimethoxyphenyl)oxymethyl]-2-phenylcyclopropanecarboxamide] were 68.6 nM, 4.2 nM, 56 nM and 3 nM.
Taken in the same sequence, the figures for `CCn1nc(C)cc1OCC1(c2ccccc2)CC1C(=O)Nc1ccc(F)cn1` (centres unmarked) [Example 58] were greater than 467 nM, 20.9 nM, 467 nM and 45 nM.
In the case of `COc1ccc(OCC2(c3ccccc3)CC2C(=O)Nc2cncc(F)c2)cc1OC` (centres unmarked) [Example 24, N-(5-fluoropyridin-3-yl)-2-[(3,4-dimethoxyphenyl)oxymethyl]-2-phenylcyclopropanecarboxamide], the Ki in assay [1] was greater than 816 nM; in assay [4], 83.5 nM. Besides, the IC50 in assay [2] (setting [5]) came out at 805 nM; in assay [3] (setting [6]), 48 nM.
For `CCn1nc(C)c(Cl)c1OCC1(c2ccccc2)CC1C(=O)Nc1ccc(Cl)cn1` (centres unmarked) [Example 75], the Ki is greater than 816 nM in assay [1] and 30.8 nM in assay [4]. Further, the IC50 stood at 477 nM in assay [2] (setting [5]) and 26 nM in assay [3] (setting [6]).
Taken in the same sequence, the figures for `CCn1cc(OCC2(c3ccccc3)CC2C(=O)Nc2ccc(Cl)cn2)cn1` (centres unmarked) [Example 81] were greater than 467 nM, 78 nM, 163 nM and 33 nM.
Taken in the same sequence, the figures for `COc1ccc(OCC2(c3ccccc3)CC2C(=O)Nc2cc(C)ns2)cc1OC` (centres unmarked) [Example 40, N-(3-methylisothiazol-5-yl)-2-[(3,4-dimethoxyphenyl)oxymethyl]-2-phenylcyclopropanecarboxamide] were 752 nM, 51.5 nM, 1050 nM and 36 nM.
Taken in the same sequence, the figures for `COc1ccc(OCC2(c3ccccc3)CC2C(=O)Nc2cc(C)no2)cc1OC` (centres unmarked) [Example 8, N-(3-methylisoxazol-5-yl)-2-[(3,4-dimethoxyphenyl)oxymethyl]-2-phenylcyclopropanecarboxamide] were greater than 816 nM, 92.1 nM, 1260 nM and 17 nM.
For `COc1ccc(OCC2(c3ccccc3)CC2C(=O)Nc2cc(C)on2)cc1OC` (centres unmarked) [Example 21, N-(5-methylisoxazol-3-yl)-2-[(3,4-dimethoxyphenyl)oxymethyl]-2-phenylcyclopropanecarboxamide], the Ki in assay [1] is greater than 816 nM; in assay [4], 77.1 nM. The IC50 in assay [2] (setting [5]) was found to be 505 nM; in assay [3] (setting [6]), 28 nM.

A word on the Ki: it is the dissociation constant of the complex between target and ligand, obtained from inhibition or displacement. Read a low Ki as tighter binding. One may read the IC50 as the point on the concentration scale where inhibition reaches its midpoint.
